Assay results reported in patent US20190352268A1, “CANNABINOID RECEPTOR MEDIATING COMPOUNDS” (The USA, as represented by the Secretary, Department of …, priority 2015, published 2019).

Biological target: CB1 (Mus musculus, UniProt P47746)
Experiment: CB1 radioligand displacement assay in mouse brain membranes
Type: binding
Parameters: radioligand displacement assay in mouse brain membranes; from tissue; host or cells: mouse brain membranes
Settings: not given

CB1, sequence (P47746 whole entry): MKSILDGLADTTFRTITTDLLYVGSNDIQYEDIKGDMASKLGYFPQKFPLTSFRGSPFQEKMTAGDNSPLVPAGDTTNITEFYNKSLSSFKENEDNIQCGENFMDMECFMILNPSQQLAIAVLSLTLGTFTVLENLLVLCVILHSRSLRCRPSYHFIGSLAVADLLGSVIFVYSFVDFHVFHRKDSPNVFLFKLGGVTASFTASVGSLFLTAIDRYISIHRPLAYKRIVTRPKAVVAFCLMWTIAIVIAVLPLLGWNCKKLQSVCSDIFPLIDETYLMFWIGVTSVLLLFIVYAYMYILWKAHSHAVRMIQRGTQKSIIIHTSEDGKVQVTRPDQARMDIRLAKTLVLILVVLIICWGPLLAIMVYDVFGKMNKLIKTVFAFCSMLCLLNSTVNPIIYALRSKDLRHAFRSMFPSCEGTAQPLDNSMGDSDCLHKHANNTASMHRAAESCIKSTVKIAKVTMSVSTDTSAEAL

Row | SMILES | Ki
1 | CC(C)(C)OC(=O)N1CCN(/C(N)=N/C(=N/S(=O)(=O)c2ccc(Cl)cc2)N2CC(c3ccccc3)C(c3ccc(Cl)cc3)=N2)CC1 (stereo not shown) [Compound 59] | 387 nM

Same assay, conditions: Table 1; read-out: Ki CB1

Row | Ki | SMILES
2 | 171 nM | CN(C)/C(N)=N/C(=N/S(=O)(=O)c1ccc(Cl)cc1)N1CC(c2ccccc2)C(c2ccc(Cl)cc2)=N1 (racemic) [Compound 44, rac-N-(amino(dimethylamino)methylene)-3-(4-chlorophenyl)-N-((4-chlorophenyl)sulfonyl)-4-phenyl-4,5-dihydro-1H-pyrazole-1-carboximidamide]
3 | 6.5 nM | CC(C)(C)OC(=O)N/C(N)=N/C(=N/S(=O)(=O)c1ccc(Cl)cc1)N1CC(c2ccccc2)C(c2ccc(Cl)cc2)=N1 (stereo not shown) [Compound 41]
4 | 193 nM | N/C(=N\C(=N\S(=O)(=O)c1ccc(Cl)cc1)N1CC(c2ccccc2)C(c2ccc(Cl)cc2)=N1)N1CCOCC1 (stereo not shown) [Compound 52]

Row | SMILES | Ki
5 | CC(C)(C)C(N)=NC(=NS(=O)(=O)c1ccc(Cl)cc1)N1CC(c2ccccc2)C(c2ccc(Cl)cc2)=N1 (stereo not shown) [Compound 3] | 7 nM

Same assay, conditions: Table 2; read-out: Ki CB1

Row | Ki | SMILES
6 | 848 nM | COCCN/C(N)=N/C(=N/S(=O)(=O)c1ccc(Cl)cc1)N1CC(c2ccccc2)C(c2ccc(Cl)cc2)=N1 (stereo not shown) [Compound 40]
7 | 190 nM | NC(=NC(=NS(=O)(=O)c1ccc(Cl)cc1)N1CC(c2ccccc2)C(c2ccc(Cl)cc2)=N1)SCCCc1ccccc1 (stereo not shown) [Compound 26]
8 | 127 nM | NC(=NC(=NS(=O)(=O)c1ccc(Cl)cc1)N1CC(c2ccccc2)C(c2ccc(Cl)cc2)=N1)SCc1ccccc1 (stereo not shown) [Compound 24]
9 | 443 nM | COC(CN/C(N)=N/C(=N/S(=O)(=O)c1ccc(Cl)cc1)N1CC(c2ccccc2)C(c2ccc(Cl)cc2)=N1)OC (stereo not shown) [Compound 60]
10 | 11 nM | NC(=NC(=NS(=O)(=O)c1ccc(I)cc1)N1CC(c2ccccc2)C(c2ccc(Cl)cc2)=N1)c1ccc(Cl)cc1 (stereo not shown) [Compound 86]
11 | 524 nM | N/C(=N/C(=N\S(=O)(=O)c1ccc(Cl)cc1)N1CC(c2ccccc2)C(c2ccc(Cl)cc2)=N1)c1ccc(F)cc1 (single isomer, unassigned) [Compound 10E2]
12 | 23 nM | CON(C)/C(N)=N/C(=N/S(=O)(=O)c1ccc(Cl)cc1)N1CC(c2ccccc2)C(c2ccc(Cl)cc2)=N1 (stereo not shown) [Compound 42]
13 | 6.6 nM | NC(=NC(=NS(=O)(=O)c1ccc(C(F)(F)F)cc1)N1CC(c2ccccc2)C(c2ccc(Cl)cc2)=N1)c1ccc(F)cc1F (stereo not shown) [Compound 80]
14 | 1.8 nM | CC(=O)N/C(N)=N/C(=N/S(=O)(=O)c1ccc(OC(F)(F)F)cc1)N1CC(c2ccccc2)C(c2ccc(Cl)cc2)=N1 (stereo not shown) [Compound 90]
15 | 535 nM | CCCCN(CC)/C(N)=N/C(=N/S(=O)(=O)c1ccc(Cl)cc1)N1CC(c2ccccc2)C(c2ccc(Cl)cc2)=N1 (stereo not shown) [Compound 36]
16 | 86 nM | COc1cccc(C(N)=NC(=NS(=O)(=O)c2ccc(Cl)cc2)N2CC(c3ccccc3)C(c3ccc(Cl)cc3)=N2)c1 (stereo not shown) [Compound 17]
17 | 505 nM | N/C(=N\C(=N\S(=O)(=O)c1ccc(Cl)cc1)N1CC(c2ccccc2)C(c2ccc(Cl)cc2)=N1)NCc1ccccc1 (stereo not shown) [Compound 50]
18 | 459 nM | N/C(=N\C(=N\S(=O)(=O)c1ccc(Cl)cc1)N1CC(c2ccccc2)C(c2ccc(Cl)cc2)=N1)NC1CCCC1 (stereo not shown) [Compound 56]
19 | 6.5 nM | N/C(=N/C(=N\S(=O)(=O)c1ccc(Cl)cc1)N1CC(c2ccccc2)C(c2ccc(Cl)cc2)=N1)c1ccc(F)cc1 (single isomer, unassigned) [Compound 10E1]
20 | 309 nM | CN1CCN(/C(N)=N/C(=N/S(=O)(=O)c2ccc(Cl)cc2)N2CC(c3ccccc3)C(c3ccc(Cl)cc3)=N2)CC1 (stereo not shown) [Compound 54]
21 | 3.4 nM | CC(C)(C)C(N)=NC(=NS(=O)(=O)c1ccc(C(F)(F)F)cc1)N1CC(c2ccccc2)C(c2ccc(Cl)cc2)=N1 (stereo not shown) [Compound 81]
22 | 5.5 nM | NC(=NC(=NS(=O)(=O)c1ccc(C(F)(F)F)cc1)N1CC(c2ccccc2)C(c2ccc(Cl)cc2)=N1)NC(=O)/C=C/c1ccccc1 (stereo not shown) [Compound 101]
23 | > 1000 nM | NC(=NC(=NS(=O)(=O)c1ccc(Cl)cc1)N1CC(c2ccccc2)C(c2ccc(Cl)cc2)=N1)NC12CC3CC(CC(C3)C1)C2 (stereo not shown) [Compound 64]
24 | 56 nM | NC(=NC(=NS(=O)(=O)c1ccc(Cl)cc1)N1CC(c2ccccc2)C(c2ccc(Cl)cc2)=N1)c1cccc(Br)c1 (stereo not shown) [Compound 14]
25 | 29 nM | O=S(=O)(N=C(N=C1CCCCN1)N1CC(c2ccccc2)C(c2ccc(Cl)cc2)=N1)c1ccc(Cl)cc1 (stereo not shown) [Compound 6]
26 | 28 nM | NC(=NC(=NS(=O)(=O)c1ccc(C(F)(F)F)cc1)N1CC(c2ccccc2)C(c2ccc(Cl)cc2)=N1)n1cccn1 (stereo not shown) [Compound 84]
27 | 29 nM | CC(C)C(N)=NC(=NS(=O)(=O)c1ccc(Cl)cc1)N1CC(c2ccccc2)C(c2ccc(Cl)cc2)=N1 (stereo not shown) [Compound 5]
28 | 516 nM | CC(C)N/C(N)=N/C(=N/S(=O)(=O)c1ccc(Cl)cc1)N1CC(c2ccccc2)C(c2ccc(Cl)cc2)=N1 (stereo not shown) [Compound 47]
29 | 166 nM | CC(C)SC(N)=NC(=NS(=O)(=O)c1ccc(Cl)cc1)N1CC(c2ccccc2)C(c2ccc(Cl)cc2)=N1 (stereo not shown) [Compound 23]
30 | 908 nM | COCCN(C)/C(N)=N/C(=N/S(=O)(=O)c1ccc(Cl)cc1)N1CC(c2ccccc2)C(c2ccc(Cl)cc2)=N1 (stereo not shown) [Compound 43]

Continued, molecule first:

Row | SMILES | Ki
31 | CC(N)=NC(=NS(=O)(=O)c1ccc(F)cc1)N1CC(c2ccccc2)C(c2ccc(Cl)cc2)=N1 (stereo not shown) [Compound 27] | 60 nM
32 | CC(N)=NC(=NS(=O)(=O)c1ccc(OC(F)(F)F)cc1)N1CC(c2ccccc2)C(c2ccc(Cl)cc2)=N1 (stereo not shown) [Compound 97] | 138 nM
33 | N/C(=N\C(=N\S(=O)(=O)c1ccc(Cl)cc1)N1CC(c2ccccc2)C(c2ccc(Cl)cc2)=N1)n1cccn1 (stereo not shown) [Compound 63] | 11 nM
34 | NC(=NC(=NS(=O)(=O)c1ccc(Cl)cc1)N1CC(c2ccccc2)C(c2ccc(Cl)cc2)=N1)c1ccc([N+](=O)[O-])cc1 (stereo not shown) [Compound 9] | 62 nM
35 | NC(=NC(=NS(=O)(=O)c1ccc(Cl)cc1)N1CC(c2ccccc2)C(c2ccc(Cl)cc2)=N1)NCC12CC3CC(CC(C3)C1)C2 (stereo not shown) [Compound 62] | > 1000 nM
36 | NC(=NC(=NS(=O)(=O)c1ccc(C(F)(F)F)cc1)N1CC(c2ccccc2)C(c2ccc(Cl)cc2)=N1)c1ccc(F)cc1 (stereo not shown) [Compound 79] | 9 nM
37 | CC(N)=NC(=NS(=O)(=O)c1ccccc1)N1CC(c2ccccc2)C(c2ccc(Cl)cc2)=N1 (stereo not shown) [Compound 30] | 114 nM
38 | N/C(=N\C(=N\S(=O)(=O)c1ccc(Cl)cc1)N1CC(c2ccccc2)C(c2ccc(Cl)cc2)=N1)NCCc1ccccc1 (stereo not shown) [Compound 51] | 931 nM
39 | CC(C)(N/C(N)=N/C(=N/S(=O)(=O)c1ccc(Cl)cc1)N1CC(c2ccccc2)C(c2ccc(Cl)cc2)=N1)c1ccccc1 (stereo not shown) [Compound 66] | 112 nM
40 | NC(=NC(=NS(=O)(=O)c1ccc(Cl)cc1)N1CC(c2ccccc2)C(c2ccc(Cl)cc2)=N1)C12CC3CC(CC(C3)C1)C2 (stereo not shown) [Compound 7] | 15 nM
41 | CC(C)(C)C(N)=NC(=NS(=O)(=O)c1ccc(Cl)cc1)N1C[C@H](c2ccccc2)C(c2ccc(Cl)cc2)=N1 [Compound 3E1] | 36 nM
42 | CCN(CC)/C(N)=N/C(=N/S(=O)(=O)c1ccc(Cl)cc1)N1CC(c2ccccc2)C(c2ccc(Cl)cc2)=N1 (stereo not shown) [Compound 38] | 49 nM
43 | NC(=NC(=NS(=O)(=O)c1ccc(C(F)(F)F)cc1)N1CC(c2ccccc2)C(c2ccc(Cl)cc2)=N1)c1ccc(Cl)cc1 (stereo not shown) [Compound 82] | 16 nM
44 | CN(Cc1cccnc1)C(N)=NC(=NS(=O)(=O)c1ccc(Cl)cc1)N1CC(c2ccccc2)C(c2ccc(Cl)cc2)=N1 (stereo not shown) [Compound 48] | 147 nM
45 | CC(=O)N/C(N)=N/C(=N/S(=O)(=O)c1ccc(Cl)cc1)N1CC(c2ccccc2)C(c2ccc(Cl)cc2)=N1 (stereo not shown) [Compound 65] | 9 nM
46 | CC(N)=NC(=NS(=O)(=O)c1ccc(C#N)cc1)N1CC(c2ccccc2)C(c2ccc(Cl)cc2)=N1 (stereo not shown) [Compound 100] | 16 nM
47 | CC(N)=NC(=NS(=O)(=O)c1ccc(C(C)(C)C)cc1)N1CC(c2ccccc2)C(c2ccc(Cl)cc2)=N1 (stereo not shown) [Compound 98] | 48 nM

Row | SMILES | Ki
48 | CC(C)(C)C(N)=NC(=NS(=O)(=O)c1ccc(I)cc1)N1CC(c2ccccc2)C(c2ccc(Cl)cc2)=N1 (stereo not shown) [Compound 89] | 4.1 nM
49 | CC(N)=NC(=NS(=O)(=O)c1ccc(C)cc1)N1CC(c2ccccc2)C(c2ccc(Cl)cc2)=N1 (stereo not shown) [Compound 31] | 87 nM
50 | N/C(=N\C(=N\S(=O)(=O)c1ccc(Cl)cc1)N1CC(c2ccccc2)C(c2ccc(Cl)cc2)=N1)NCCc1c[nH]c2ccccc12 (stereo not shown) [Compound 58] | 585 nM
51 | COCCN(CCOC)/C(N)=N/C(=N/S(=O)(=O)c1ccc(Cl)cc1)N1CC(c2ccccc2)C(c2ccc(Cl)cc2)=N1 (stereo not shown) [Compound 39] | 425 nM
52 | NC(=NC(=NS(=O)(=O)c1ccc(Cl)cc1)N1CC(c2ccccc2)C(c2ccc(Cl)cc2)=N1)c1ccc(F)cc1 (stereo not shown) [Compound 10] | 7.9 nM
53 | CC(N)=NC(=NS(=O)(=O)c1ccc2ccccc2c1)N1CC(c2ccccc2)C(c2ccc(Cl)cc2)=N1 (stereo not shown) [Compound 33] | 8 nM
54 | CC(C)(C)C(N)=NC(=NS(=O)(=O)c1ccc(Cl)cc1)N1CC(c2ccccc2)C(c2ccc(Cl)cc2)=N1 (stereo not shown) [Compound 3] | 7 nM
55 | CN(CC(C)(C)C)C(N)=NC(=NS(=O)(=O)c1ccc(Cl)cc1)N1CC(c2ccccc2)C(c2ccc(Cl)cc2)=N1 (stereo not shown) [Compound 67] | 2390 nM
56 | N/C(=N\C(=N\S(=O)(=O)c1ccc(Cl)cc1)N1CC(c2ccccc2)C(c2ccc(Cl)cc2)=N1)N1CCCCC1 (stereo not shown) [Compound 53] | 276 nM
57 | NC(=NC(=NS(=O)(=O)c1ccc(Cl)cc1)N1CC(c2ccccc2)C(c2ccc(Cl)cc2)=N1)c1ccc(Br)cc1 (stereo not shown) [Compound 20] | 27 nM
58 | COc1ccc(S(=O)(=O)N=C(N=C(C)N)N2CC(c3ccccc3)C(c3ccc(Cl)cc3)=N2)cc1 (stereo not shown) [Compound 32] | 182 nM
59 | NC(COc1ccccc1)=NC(=NS(=O)(=O)c1ccc(Cl)cc1)N1CC(c2ccccc2)C(c2ccc(Cl)cc2)=N1 (stereo not shown) [Compound 13] | 72 nM
60 | C=CCN(CC=C)/C(N)=N/C(=N/S(=O)(=O)c1ccc(Cl)cc1)N1CC(c2ccccc2)C(c2ccc(Cl)cc2)=N1 (stereo not shown) [Compound 35] | 263 nM
61 | Cc1cc(C)n(C(N)=NC(=NS(=O)(=O)c2ccc(Cl)cc2)N2CC(c3ccccc3)C(c3ccc(Cl)cc3)=N2)n1 (stereo not shown) [Compound 69] | 10 nM
62 | CC(C)(C)OC(=O)N/C(N)=N/C(=N/S(=O)(=O)c1ccc(Cl)cc1)N1CC(c2ccccc2)C(c2ccc(Cl)cc2)=N1 (stereo not shown) [Compound 41] | 6.5 nM
63 | N/C(=N\C(=N\S(=O)(=O)c1ccc(Cl)cc1)N1CC(c2ccccc2)C(c2ccc(Cl)cc2)=N1)N1CCOCC1 (stereo not shown) [Compound 52] | 193 nM
64 | NC(=NC(=NS(=O)(=O)c1ccc(I)cc1)N1CC(c2ccccc2)C(c2ccc(Cl)cc2)=N1)c1ccc(F)cc1 (stereo not shown) [Compound 87] | 12 nM
